Molecular target: T1, carbonyl reductase 1 (CBR1) (Homo sapiens, UniProt P16152)
T1 construct: human recombinant CBR1 expressed in Escherichia coli Rosetta (DE3)
T1 sequence (P16152 2-277): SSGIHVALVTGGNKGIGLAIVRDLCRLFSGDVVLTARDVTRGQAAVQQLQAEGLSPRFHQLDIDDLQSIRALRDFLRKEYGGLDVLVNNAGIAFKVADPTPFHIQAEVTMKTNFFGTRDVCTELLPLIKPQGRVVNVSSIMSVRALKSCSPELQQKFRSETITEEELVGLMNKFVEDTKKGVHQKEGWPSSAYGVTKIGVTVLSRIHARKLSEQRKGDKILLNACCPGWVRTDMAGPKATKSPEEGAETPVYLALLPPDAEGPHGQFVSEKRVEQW
Assay: recombinant CBR1 inhibition, menadione substrate, NADPH oxidation monitored at […] nm
Assay type: biochemical

IC50: 44 µM
Compound: COc1ccc2[nH]c(C(=O)N3CCC(CC(C)(C)O)CC3)cc2c1 [ASP9521]

Reference: paper PMC10180078, “In Silico and In Vitro Assessment of Carbonyl Reductase 1 Inhibition Using ASP9521—A Potent Aldo-Keto Reductase 1C3 Inhibitor with the Potential to Support Anticancer Therapy Using Anthracycline Antibiotics” (Molecules, 2023)
